According to patent US9242944B2 (UNIVERSITY OF MARYLAND, BALTIMORE, priority 2013, dated 2016):
Entries after “also recorded” stand apart in the source; their conditions may differ. Like-named read-outs stand apart in the source and are kept apart here.

Legend:
Max-Max homodimers = biological target: T1, Max-Max homodimers (Homo sapiens, UniProt P61244); assay: EMSA of Max-Max homodimerization and DNA binding; settings: for IC50: 50% inhibition of Max-Max dimerization and DNA binding in EMSAs
T1 construct: His6; made in house; host or cells: bacteria

HL60 cells = assay: Growth inhibition (MTT assay) in HL60 cells; assay type: cell-based, human; settings: for IC50: Homo sapiens, HL-60, MTT assay; for IC50 HL60: MTT assay
Procedure: (§1) These were performed using HL60 human promyelocytic leukemia cells or Daudi Burkitt lymphoma cells essentially as described previously (23). Briefly, cells were seeded into 96 well dishes (5000 cells/well and 10,000 cells/well for HL60 and Daudi cells, respectively). Growth medium consisted of RPMI medium supplemented with Penicillin/Streptomycin, glutamine and 10% fetal bovine serum. The indicated concentrations of each compound were then added and 10-point growth inhibition assays were performed 3-5 days later using the MTT assay. Each point was performed in quadruplicate.
(§2) Daudi Burkitt lymphoma and HL60 promyelocytic leukemia cells were maintained in RPMI medium supplemented with 10% fetal bovine serum.(23) For growth inhibition studies, 3×10^3 cells were seeded in 96 well plates in the presence of serial dilutions of each compound. A total of 10 dilutions, ranging from 0.1 to 50 μM were performed for each compound. Standard MTT assays (23) were used to quantify cell number 3-4 days later and compared to wells exposed to DMSO vehicle only.

Daudi cells = assay: Growth inhibition (MTT assay) in Daudi cells; assay type: cell-based; settings: for IC50: Homo sapiens, Daudi
Procedure: as §1, §2

c-Myc-Max heterodimers = biological target: T2, c-Myc-Max heterodimers (Homo sapiens, UniProt P01106); assay: Electrophoretic mobility shift assay (EMSA) of c-Myc-Max dimerization and DNA binding; settings: for IC50: 50% inhibition of c-Myc-Max dimerization and DNA binding in EMSAs
T2 construct: c-Myc bHLH-ZIP domain (residues 353-437); His6-TEV protease substrate tag; made in house; host or cells: bacteria (pET151 vector for Myc)
Procedure: The ability of a small-molecule to interfere with c-Myc-Max dimerization is conveniently assessed through the disruption of the c-Myc-Max/DNA ternary complex by an electrophoretic mobility shift assay (EMSA) using fluorescently-labelled DNA, and subsequently quantified by densitometry.(23) Accordingly, a 100-member library was screened for the ability to disrupt the c-Myc-Max dimer.
These were performed essentially as described previously (23). Briefly, Ni^+-agarose-purified His6-tagged c-Myc bHLH-ZIP domain (residues 353-437) was used for all binding assays as was the His6-tagged 151 residue isoform of Max, otherwise referred to as Max(S) (residues 2-151) (21). For each binding reaction, the proteins were allowed to heterodimerize at a concentration of 30 nM each in the presence of 20 nM of a 5′-HEX-tagged double-stranded 22-base pair oligonucleotide 5′-hexachlorofluoresceine-[…]-3′ (SEQ ID NO: 1) containing a consensus c-Myc binding site (CACGTG) and the indicated concentration of small molecule inhibitor. Control reactions contained the same oligonucleotide in the presence of 60 nM of the 160 residue isoform of Max referred to as Max(L) (21). All binding reactions were prepared in a buffer consisting of PBS (pH 7.3), 1 mmol/L EDTA, 0.1% NP40, 5% glycerol, 1 mmol/L DTT, and 0.4 mg/mL bovine serum albumin. Electrophoresis was performed on 8% polyacrylamide/bisacrylamide (80:1) gels in […] (23). Each reaction was run on at least three separate occasions.
EMSAs were performed essentially as described utilizing bacterially-expressed recombinant proteins purified nearly to homogeneity.(23) Experiments with Max homodimers used the His6-tagged 160 amino acid isoform of the protein, termed Max(L), which homodimerizes and binds DNA well. For studies with Myc-Max heterodimers, the His6-tagged 151 residue isoform of Max [Max(S)] was used, which binds DNA well as a heterodimer with Myc but poorly as a homodimer.(23) Recombinant Myc protein, expressed in the pET151 vector, consisted of the His6-TEV protease substrate-tagged 85 amino acid bHLH-ZIP domain. (23) Each protein was purified by Ni-agarose affinity chromatography as previously described. (23) The His6-TEV tag was removed from the Myc protein by TEV protease cleavage followed by re-purification using Ni-agarose affinity chromatography to remove the His6-TEV protease and the cleaved His6-TEV tag as previously described. Binding assays were performed with 30 nM of each protein and 30 nM of a 6-carboxy-2′,4,4′,5′,7,7′-hexachlorofluorescein (HEX)-tagged double-stranded oligonucleotide containing a consensus Myc binding site (IDT, Coralville, Iowa).(23)

[1] = 10-point serial dilution, quadruplicate, read-out: IC50 HL60
[2] = 10-point serial dilution, quadruplicate
[3] = 10-point serial dilution, quadruplicate, read-out: IC50 Daudi
[4] = Table 10, 100 μM small-molecule, EMSA, read-out: % Inhibition of c-Myc-Max Dimerization
[5] = Table 11, 100 uM, EMSA, read-out: % Inhibition of c-Myc-Max Dimerization
[6] = Table 2, 100 μM compound, Myc-Max/DNA band intensity relative to control, read-out: Inhibition at 100 μM (%)

T2 sequence (P01106 368-452, one chain of several): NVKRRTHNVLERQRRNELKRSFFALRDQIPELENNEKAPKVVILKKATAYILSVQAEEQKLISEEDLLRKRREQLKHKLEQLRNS
T1 sequence (P61244 whole entry): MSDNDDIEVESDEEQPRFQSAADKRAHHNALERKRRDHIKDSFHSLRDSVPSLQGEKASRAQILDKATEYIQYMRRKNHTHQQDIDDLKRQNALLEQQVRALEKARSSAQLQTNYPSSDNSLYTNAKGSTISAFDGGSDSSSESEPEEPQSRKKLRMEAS

| IC50 (Max-Max homodimers) [µM] | IC50 (HL60 cells; [1]) [µM] | IC50 HL60 (HL60 cells; [2]) | IC50 Daudi (Daudi cells; [2]) | IC50 (Daudi cells; [3]) [µM] | IC50 (c-Myc-Max heterodimers) [µM] | inhibition at 100 µM (c-Myc-Max heterodimers; [4]) [%] | Compound | further results |
| --- | --- | --- | --- | --- | --- | --- | --- | --- |
| > 100 | > 100 | inactive | inactive | > 100 | > 100 | 16 | Cc1ccc(-c2cc(C(=O)O)ccc2Nc2ccc([N+](=O)[O-])c3nonc23)cc1 [Compound 3jc53-6, 4′-Methyl-6-((7-nitrobenzo[c][1,2,5]oxadiazol-4-yl)amino)-[1,1′-biphenyl]-3-carboxylic acid] | inhibition of c-Myc-Max dimerization in vitro (in words) (c-Myc-Max heterodimers; EMSA): inactive in vitro |
| > 100 | 0.877 ± 0.07 | – | – | 0.5 ± 0.025 | 75 | 74 | COC(=O)c1ccc(Nc2ccc([N+](=O)[O-])c3nonc23)c(-c2ccc(C(F)(F)F)cc2)c1 [Compound 4jc23-4, Methyl 6-((7-nitrobenzo[c][1,2,5]oxadiazol-4-yl)amino)-4′-(trifluoromethyl)-[1,1′-biphenyl]-3-carboxylate] | IC50 (HL60 cells; read-out: IC50 against HL60 cells): 0.877 µM; IC50 (Daudi cells; read-out: IC50 against Daudi cells): 0.5 µM |
| > 100 | 5.3 ± 0.3 | single-digit micromolar | single-digit micromolar | 3.9 ± 0.4 | 71 | – | O=C(Nc1ccccc1C(F)(F)F)c1ccc(Nc2ccc([N+](=O)[O-])c3nonc23)cc1 [JY-5-261, 4-((7-Nitrobenzo[c][1,2,5]oxadiazol-4-yl)amino)-N-(2-(trifluoromethyl)phenyl)benzamide] | – |
| – | – | – | – | – | – | 13 | N#Cc1ccc(-c2cc(C(=O)O)ccc2Nc2ccc([N+](=O)[O-])c3nonc23)cc1 [Compound 3jc53-9] | – |
| > 100 | 3.1 ± 0.3 | single-digit micromolar | single-digit micromolar | 5.1 ± 0.56 | 57.9 | – | O=C(Nc1ccccc1)c1ccc(Nc2ccc([N+](=O)[O-])c3nonc23)cc1 [JY-5-195, 4-((7-Nitrobenzo[c][1,2,5]oxadiazol-4-yl)amino)-N-phenylbenzamide] | – |
| – | – | – | – | – | – | – | COC(=O)c1cc(Nc2ccccc2-c2ccccc2)ccc1[N+](=O)[O-] [SF-3-107] | inhibition at 100 µM (c-Myc-Max heterodimers; [5]): 0% |
| – | – | – | – | – | – | – | O=C(O)COCC(=O)Nc1ccc(Nc2ccccc2-c2ccccc2)c2nonc12 [Compound 5e, 2-(2-((7-([1,1′-Biphenyl]-2-ylamino)benzo[c][1,2,5]oxadiazol-4-yl)amino)-2-oxoethoxy)acetic acid] | inhibition at 100 µM (c-Myc-Max heterodimers; [6]): 33% |
| – | – | – | – | – | – | – | O=C(O)c1ccc(Nc2ccccc2-c2ccccc2)cc1 [SF-3-093B] | inhibition at 100 µM (c-Myc-Max heterodimers; [5]): 4% |
| – | – | – | – | – | – | – | O=C(Nc1ccc(Nc2ccccc2-c2ccccc2)c2nonc12)C(F)(F)F [Compound 5b, N-(7-([1,1′-Biphenyl]-2-ylamino)benzo[c][1,2,5]oxadiazol-4-yl)-2,2,2-trifluoroacetamide] | inhibition at 100 µM (c-Myc-Max heterodimers; [6]): 25% |
| – | – | – | – | – | – | 0 | O=C(O)c1ccc(Nc2ccc([N+](=O)[O-])c3nonc23)c(-c2ccccc2O)c1 [Compound 3jc53-13] | – |
| – | – | – | – | – | – | 23 | N#Cc1cccc(-c2cc(C(=O)O)ccc2Nc2ccc([N+](=O)[O-])c3nonc23)c1 [Compound 3jc53-8] | – |

| Compound | IC50 (Max-Max homodimers) [µM] | IC50 (HL60 cells; [1]) [µM] | IC50 HL60 (HL60 cells; [2]) | IC50 Daudi (Daudi cells; [2]) | IC50 (Daudi cells; [3]) [µM] | IC50 (c-Myc-Max heterodimers) [µM] | inhibition at 100 µM (c-Myc-Max heterodimers; [4]) [%] | further results |
| --- | --- | --- | --- | --- | --- | --- | --- | --- |
| O=C(O)c1ccc(Nc2ccc([N+](=O)[O-])c3nonc23)cc1 [JY-3-094, 4-((7-Nitrobenzo[c][1,2,5]oxadiazol-4-yl)amino)benzoic acid] | > 100 | > 100 | inactive | inactive | > 100 | 33 | – | activity against Max-Max homodimers (Max-Max homodimers; EMSA, at 100 μM): no effect; also recorded: no activity; c-Myc-Max inhibitory potency relative to 10074-G5 (c-Myc-Max heterodimers; EMSA): around five-fold as potent; inhibition of c-Myc-Max dimerization in vitro (in words) (c-Myc-Max heterodimers; EMSA): dose-dependent inhibition; selectivity for Myc-Max heterodimers over Max-Max homodimers (c-Myc-Max heterodimers; EMSA): greater than three-fold selectivity; also recorded: at least three-fold selective; Kd (c-Myc-Max heterodimers; EMSA dose-response (FIG. 4), read-out: Kd value, inhibition of Myc-Max dimerization): 33 µM; inhibition at 100 µM (c-Myc-Max heterodimers; read-out: % Inhibition of c-Myc-Max Dimerization, Table 10, 100 μM small-molecule, EMSA): 94%; inhibition at 100 µM (c-Myc-Max heterodimers; read-out: % Inhibition of c-Myc-Max Dimerization, Table 11, 100 uM, EMSA): 94%; inhibition at 100 µM (c-Myc-Max heterodimers; read-out: Inhibition at 100 μM (%), Table 1, 100 μM compound, Myc-Max/DNA band intensity relative to control): 93% |
